Data: patent EP4624466A1, “DEGRADER FOR DECOMPOSING CMET PROTEIN, AND PHARMACEUTICAL COMPOSITION COMPRISING SAME” (Innocure Therapeutics, Inc., priority 2022, dated 2024)
Where two headings read alike, the source gives them in different places.

Assays:
[1] = system: SNU-638; test: Cell viability / antiproliferative assay (WST-8), SNU-638; format: cell-based, human; conditions: read-out: SNU-638 IC50
Experimental: c-MET overexpressing human gastric cancer cell lines [MKN45] and [SNU638] were cultured in RPMI medium with 10% fetal bovine serum, penicillin (100U/ml), and streptomycin (100mg/ml), and c-MET exon 14 skipping mutant human gastric cancer cell lines [Hs746T] were cultured in DMEM media. The c-MET overexpressing human lung cancer cell line EBC-1 was cultured in MEM media with the addition of 10% fetal bovine serum, penicillin (100U/ml), and streptomycin (100mg/ml). […] The compound synthesized in accordance with the present invention was prepared with a raw material solution of 10 mM dissolved in DMSO (dimethyl sulfoxide), and was sequentially diluted and processed.
In order to observe the inhibitory activity on cell growth, cells were dispensed in a 96-well plate at a concentration of 5,000 cells/well, and then treated with the compound prepared at various concentrations for 72 hours. The viability of the cells was calculated using GraphicPad Prism 8.0 software by adding 10 ml per well of WST-8 (water soluble tetrazolium salt) sample, which reacts with dehydrogenase present in the electron transport system of mitochondria to produce formazon, incubated for 2 hours, and measured absorbance at 450 nm.

[2] = molecular target: T1, c-MET (Homo sapiens, UniProt P08581); test: c-MET protein degradation (Simple Western), SNU-638; format: cell-based; design: assess the resolution of the compound of the present invention for c-MET expressed in cells; endogenous in cells; host or cells: SNU638 (human gastric cancer); conditions: c-MET overexpressing gastric cancer cell line SNU-638, treated 24 hours; Table 2
T1 sequence (P08581 25-1390): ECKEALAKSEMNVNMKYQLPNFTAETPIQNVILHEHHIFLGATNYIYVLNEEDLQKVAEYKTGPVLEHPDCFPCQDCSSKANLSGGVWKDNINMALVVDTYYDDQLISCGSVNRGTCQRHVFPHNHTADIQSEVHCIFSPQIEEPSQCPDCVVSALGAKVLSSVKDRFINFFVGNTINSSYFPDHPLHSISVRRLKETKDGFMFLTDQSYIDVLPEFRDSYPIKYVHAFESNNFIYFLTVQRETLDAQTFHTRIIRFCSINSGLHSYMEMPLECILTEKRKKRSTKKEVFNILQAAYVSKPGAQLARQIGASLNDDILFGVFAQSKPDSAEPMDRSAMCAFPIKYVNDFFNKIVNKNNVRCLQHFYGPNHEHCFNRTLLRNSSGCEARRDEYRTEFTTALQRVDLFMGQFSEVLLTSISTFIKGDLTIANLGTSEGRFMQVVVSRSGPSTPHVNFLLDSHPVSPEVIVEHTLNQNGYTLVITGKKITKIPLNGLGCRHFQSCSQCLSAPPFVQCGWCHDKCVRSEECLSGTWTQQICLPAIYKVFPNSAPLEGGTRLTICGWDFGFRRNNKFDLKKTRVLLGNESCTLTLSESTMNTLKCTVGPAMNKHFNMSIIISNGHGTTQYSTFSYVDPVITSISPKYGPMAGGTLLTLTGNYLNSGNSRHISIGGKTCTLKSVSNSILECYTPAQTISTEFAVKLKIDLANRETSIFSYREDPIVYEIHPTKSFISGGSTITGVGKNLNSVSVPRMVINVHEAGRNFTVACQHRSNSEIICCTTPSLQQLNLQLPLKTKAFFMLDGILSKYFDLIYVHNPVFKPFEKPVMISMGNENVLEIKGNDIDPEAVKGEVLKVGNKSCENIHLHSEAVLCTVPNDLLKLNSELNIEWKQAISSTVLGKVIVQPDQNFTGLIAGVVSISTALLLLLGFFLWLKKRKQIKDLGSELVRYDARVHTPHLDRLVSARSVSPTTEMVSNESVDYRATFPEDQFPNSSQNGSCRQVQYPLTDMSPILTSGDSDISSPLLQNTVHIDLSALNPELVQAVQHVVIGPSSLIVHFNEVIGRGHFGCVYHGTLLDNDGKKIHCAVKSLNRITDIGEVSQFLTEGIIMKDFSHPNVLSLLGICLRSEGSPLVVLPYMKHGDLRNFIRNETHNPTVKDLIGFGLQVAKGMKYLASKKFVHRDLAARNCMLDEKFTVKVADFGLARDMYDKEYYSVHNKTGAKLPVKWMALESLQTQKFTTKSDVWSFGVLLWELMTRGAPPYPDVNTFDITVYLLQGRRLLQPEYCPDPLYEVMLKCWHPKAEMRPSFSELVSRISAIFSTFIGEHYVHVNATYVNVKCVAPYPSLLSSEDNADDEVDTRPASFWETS
Experimental: (§1) In order to assess the resolution of the compound of the present invention for c-MET expressed in cells, cells were dispensed in a 12-well plate at a concentration of 2 × 10^5 cells/well, and then gastric cancer cell lines were treated with samples for 24 hours and lung cancer cell lines were treated for 48 hours. Cell lysates were collected using a scraper on ice, centrifuged at 4°C15,000 rpm for 30 min to obtain a protein-containing supernatant. Protein expression was then measured using the Simple Western Automated Western Blot System Abby instrument using 3 µg of protein for each sample. SDS and heat-induced denaturation proteins were separated by molecular weight, attached to capillary, reacted with anti-c-MET or anti-GAPDH antibodies, which are primary antibodies, and then reacted with HRP-conjugated secondary antibodies, and analyzed the protein expression signal with compass software. Protein expression was normalized based on the expression value of GAPDH, and protein development in each sample was measured as a percentage (%) based on 100% of samples treated with 0.1% DMSO carriers, and DC50 (concentration of a compound where 50% protein inhibition is achieved) was calculated from the change in protein expression amount due to compound treatment.

[3] = molecular target: T1, c-MET; test: c-MET protein degradation (Simple Western), MKN-45; format: cell-based; design: assess the resolution of the compound of the present invention for c-MET expressed in cells; endogenous in cells; host or cells: MKN45 (human gastric cancer); conditions: c-MET overexpressing gastric cancer cell line MKN-45, treated 24 hours
Experimental: as §1

[4] = system: MKN-45; test: Cell viability / antiproliferative assay (WST-8), MKN-45; conditions: read-out: MKN-45 IC50;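 note: MKN-45 is a human gastric cancer line overexpressing c-MET, growth inhibition read as WST-8 formazan absorbance at 450 nm after 2 h dye incubation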
[5] = SNU-638 cells, 72 hours, WST-8, Table 2
[6] = MKN-45 cells, 72 hours, WST-8, Table 1

N#Cc1cccc(-c2ccc(=O)n(Cc3ccc(-c4ncc(OCC5CCN(CCCC#Cc6cccc7c(=O)n(C8CCC(=O)NC8=O)ncc67)CC5)cn4)cc3)n2)c1 (stereo not drawn) [ICT-0001303]
IC50 [1, 5]: < 100 nM | DC50 [2]: 100 to 1000 nM

Cc1nn(C2CCC(=O)NC2=O)c(=O)c2cc(N3CCN(CC4CCN(CCN5CCC(COc6cnc(-c7cccc(Cn8nc(-c9cccc(C#N)c9)ccc8=O)c7)nc6)CC5)CC4)CC3)c(F)cc12 (stereo not drawn) [ICT-0001326]
IC50 ([1]; Homo sapiens, SNU-638, 72 h): 100 to 1000 nM | DC50 [2]: > 1000 nM

Cc1nn(C2CCC(=O)NC2=O)c(=O)c2c(NCC(=O)N3CCC(CN4CCC(COc5cnc(-c6cccc(Cn7nc(-c8cccc(C#N)c8)ccc7=O)c6)nc5)CC4)CC3)cccc12 (stereo not drawn) [ICT-0000980]
DC50 ([3]; Table 2): < 100 nM | IC50 ([4]; Homo sapiens, MKN-45, 72 h): < 100 nM | IC50 ([1]; Homo sapiens, SNU-638, 72 h): 100 to 1000 nM | DC50 [2]: > 1000 nM

Cn1cc(-c2cnc3c(nnn3C[C@@H]3CN(c4ncc(-c5ccc(CN6CCN(C(=O)CCCNc7ccc8c(=O)n(C9CCC(=O)NC9=O)ncc8c7)CC6)cc5)cn4)CCO3)n2)cn1 (stereo partly drawn) [ICT-0000922, 3-{6-[(4-{4-[(4-{2-[(2S)-2-{[5-(1-methyl-1H-pyrazole-4-yl)-1H-[1,2,3]triazolo[4,5-b]pyrazine-1-yl]methyl}morpholine-4-il]pyrimidine-5-yl}phenyl)methyl]piperazine-1-yl}-4-oxobutyl)amino]-1-oxo-1,2-dihydroptalazine-2-yl}piperidine-2,6-dione]
DC50 ([3]; Table 1): < 100 nM | IC50 ([4]; Homo sapiens, MKN-45, 72 h): < 100 nM | IC50 ([1]; Homo sapiens, SNU-638, 72 h): < 100 nM

Cn1cc(-c2cnc3c(nnn3C[C@@H]3CN(c4ncc(-c5ccc(CN6CCN(C(=O)CCCCCNc7ccc8c(=O)n(C9CCC(=O)NC9=O)ncc8c7)CC6)cc5)cn4)CCO3)n2)cn1 (stereo partly drawn) [ICT-0000923, 3-{6-[(6-{4-[(4-{2-[(2S)-2-{[5-(1-methyl-1H-pyrazole-4-yl)-1H-[1,2,3]triazolo[4,5-b]pyrazine-1-yl]methyl}morpholine-4-day]pyrimidine-5-yl}phenyl)methyl]piperazine-1-yl}-6-oxohexyl)amino]-1-oxo-1,2-dihydrophthalazine-2-yl}piperidine-2,6-dione]
DC50 ([3]; Table 1): < 100 nM | IC50 ([4]; Homo sapiens, MKN-45, 72 h): < 100 nM | IC50 ([1]; Homo sapiens, SNU-638, 72 h): < 100 nM

Cn1cc(-c2cnc3c(nnn3C[C@@H]3CN(c4ncc(-c5ccc(CN6CCN(C(=O)CCCCCCNc7ccc8c(=O)n(C9CCC(=O)NC9=O)ncc8c7)CC6)cc5)cn4)CCO3)n2)cn1 (stereo partly drawn) [ICT-0000925, 3-(6-((7-(4-(4-(2-((S)-2-((5-(1-methyl-1H-pyrazole-4-yl)-1H-[1,2,3]triazolo[4,5-b]pyrazine-1-yl)methyl)morpholino)pyrimidine-5-yl)benzyl)piperazine-1-yl)7-oxoheptyl)amino)1-oxopthalazine-2(1H)-yl)piperidine-2,6-dione]
DC50 ([3]; Table 1): < 100 nM | IC50 [4, 6]: < 100 nM | IC50 ([1]; SNU-638 cells, 72 hours, WST-8, Table 1): < 100 nM

Cc1nn(C2CCC(=O)NC2=O)c(=O)c2ccc(N3CCN(C4CCN(CC(=O)N5CCC(COc6cnc(-c7cccc(Cn8nc(-c9cccc(C#N)c9)ccc8=O)c7)nc6)CC5)CC4)CC3)cc12 (stereo not drawn) [ICT-0001255]
DC50 ([3]; Table 2): < 100 nM | IC50 ([4]; Homo sapiens, MKN-45, 72 h): < 100 nM | IC50 ([1]; Homo sapiens, SNU-638, 72 h): < 100 nM

Cc1nn(C2CCC(=O)NC2=O)c(=O)c2ccc(N3CCN(C(=O)C4CCN(CC(=O)N5CCC(COc6cnc(-c7cccc(Cn8nc(-c9cccc(C#N)c9)ccc8=O)c7)nc6)CC5)CC4)CC3)cc12 (stereo not drawn) [ICT-0001218]
DC50 ([3]; Table 2): < 100 nM | IC50 ([4]; Homo sapiens, MKN-45, 72 h): < 100 nM | IC50 ([1]; Homo sapiens, SNU-638, 72 h): < 100 nM | DC50 [2]: < 100 nM

N#Cc1cccc(-c2ccc(=O)n(Cc3cccc(-c4ncc(OCC5CCN(C(=O)CCCCN6CCN(c7ccc8c(=O)n(C9CCC(=O)NC9=O)ncc8c7)CC6)CC5)cn4)c3)n2)c1 (stereo not drawn) [ICT-0001201, 3-(1-{[3-(5-{[1-(5-{4-[2-(2,6-dioxopiperidin-3-yl)-1-oxo-1,2-dihydropetalazine-6-yl]piperazine-1-yl}pentanoyl)piperidine-4-il]methoxy}pyrimidine-2-yl)phenyl]methyl}6-oxo-1,6-dihydropyridazine-3-yl)benzonitrile]
DC50 ([3]; Table 2): < 100 nM | IC50 ([4]; Homo sapiens, MKN-45, 72 h): < 100 nM

Cc1nn(C2CCC(=O)NC2=O)c(=O)c2ccc(N3CCN(C[C@@H]4CN(CCN5CCC(COc6cnc(-c7cccc(Cn8nc(-c9cccc(C#N)c9)ccc8=O)c7)nc6)CC5)CCO4)CC3)cc12 (stereo partly drawn) [ICT-0001315]
IC50 [1, 5]: < 100 nM

Cc1nn(C2CCC(=O)NC2=O)c(=O)c2ccc(N3CCN(C4CN(CCN5CCC(COc6cnc(-c7cccc(Cn8nc(-c9cccc(C#N)c9)ccc8=O)c7)nc6)CC5)C4)CC3)cc12 (stereo not drawn) [ICT-0001325]
IC50 ([1]; Homo sapiens, SNU-638, 72 h): < 100 nM | DC50 [2]: > 1000 nM

3-(6-(4-((1-(4-(1-(2-((S)-2-((5-(1-methyl-1H-pyrazole-4-yl)-1H-[1,2,3]triazolo[4,5-b]pyrazine-1-yl)methyl)morpholino)pyrimidine-5-il)benzyl)piperidine-4-il)methyl)piperazine-1-yl)piperazine-1-yl)1-oxopthalazine-2(1H)-yl)piperidine-2,6-dione [ICT-0000978]
DC50 ([3]; Table 1): 100 to 1000 nM | IC50 [4, 6]: < 100 nM

Cn1cc(-c2cnc3c(nnn3C[C@@H]3CN(c4ncc(-c5ccc(CN6CCN(C(=O)CCCCNc7ccc8c(=O)n(C9CCC(=O)NC9=O)ncc8c7)CC6)cc5)cn4)CCO3)n2)cn1 (stereo partly drawn) [ICT-0000924, 3-(6-((5-(4-(4-(2-((S)-2-((5-(1-methyl-1H-pyrazole-4-yl)-1H-[1,2,3]triazolo[4,5-b]pyrazine-1-yl)methyl)morpholino)pyrimidine-5-yl)benzyl)piperazine-1-yl)5-oxopentyl)amino)1-oxopthalazine-2(1H)-yl)piperidine-2,6-dione]
DC50 ([3]; Table 1): < 100 nM | IC50 ([4]; Homo sapiens, MKN-45, 72 h): < 100 nM | IC50 ([1]; Homo sapiens, SNU-638, 72 h): < 100 nM

N#Cc1cccc(-c2ccc(=O)n(Cc3cccc(-c4ncc(OCC5CCN(CCCC#Cc6ccc7c(=O)n(C8CCC(=O)NC8=O)ncc7c6)CC5)cn4)c3)n2)c1 (stereo not drawn) [ICT-0001305]
IC50 [1, 5]: < 100 nM

N#Cc1cccc(-c2ccc(=O)n(Cc3cccc(-c4ncc(OCC5CCN(CCCCC(=O)N6CCN(c7ccc8c(=O)n(C9CCC(=O)NC9=O)ncc8c7)CC6)CC5)cn4)c3)n2)c1 (stereo not drawn) [ICT-0001252]
DC50 ([3]; Table 2): < 100 nM | IC50 ([4]; Homo sapiens, MKN-45, 72 h): < 100 nM

Cc1nn(C2CCC(=O)NC2=O)c(=O)c2ccc(N3CCO[C@H](CN4CCN(CC(=O)N5CCC(COc6cnc(-c7cccc(Cn8nc(-c9cccc(C#N)c9)ccc8=O)c7)nc6)CC5)CC4)C3)cc12 (stereo partly drawn) [ICT-0001229]
DC50 ([3]; Table 2): < 100 nM | IC50 ([4]; Homo sapiens, MKN-45, 72 h): < 100 nM

Cc1nn(C2CCC(=O)NC2=O)c(=O)c2cc(N3CCN(CCCCC(=O)N4CCC(COc5cnc(-c6cccc(Cn7nc(-c8cccc(C#N)c8)ccc7=O)c6)nc5)CC4)CC3)ccc12 (stereo not drawn) [ICT-0001217]
DC50 ([3]; Table 2): < 100 nM | IC50 ([4]; Homo sapiens, MKN-45, 72 h): < 100 nM

N#Cc1cccc(-c2ccc(=O)n(Cc3cccc(-c4ncc(OCC5CCN(C(=O)COCCOCCOCCOCCNc6ccc7c(=O)n(C8CCC(=O)NC8=O)ncc7c6)CC5)cn4)c3)n2)c1 (stereo not drawn) [ICT-0000988, 3-(1-{[3-(5-{[1-(14-{[2-(2,6-dioxopiperidin-3-yl)-1-oxo-1,2-dihydroptalazine-6-yl]amino}-3,6,9,12-tetradecanoyl)piperidin-4-yl]methoxy}pyrimidine-2-yl)phenyl]methyl}-6-oxo-1,6-dihydropyridazine-3-yl)benzonitrile]
DC50 ([3]; Table 2): < 100 nM | IC50 ([4]; Homo sapiens, MKN-45, 72 h): 100 to 1000 nM

Cc1cc2c(=O)n(C3CCC(=O)NC3=O)nc(C)c2cc1N1CCN(CC2CCN(CCN3CCC(COc4cnc(-c5cccc(Cn6nc(-c7cccc(C#N)c7)ccc6=O)c5)nc4)CC3)CC2)CC1 (stereo not drawn) [ICT-0001319]
IC50 [1, 5]: < 100 nM

Cn1cc(-c2cnc3c(nnn3C[C@@H]3CN(c4ncc(-c5ccc(CN6CCN(C(=O)COCCOCCOCCNc7ccc8c(=O)n(C9CCC(=O)NC9=O)ncc8c7)CC6)cc5)cn4)CCO3)n2)cn1 (stereo partly drawn) [ICT-0000938, 3-[6-(12-{4-[(4-{2-[(2S)-2-{[5-(1-methyl-1H-pyrazole-4-yl)-1H-[1,2,3]triazolo[4,5-b]pyrazine-1-yl]methyl}morpholine-4-day]pyrimidine-5-yl}phenyl)methyl]piperazine-1-yl}-12-oxo-4,7,10-trioxa-1-azadodecane-1-yl)-1-oxo-1,2-dihydroptalazine-2-yl]piperidine-2,6-dione]
DC50 ([3]; Table 1): > 1000 nM | IC50 ([4]; Homo sapiens, MKN-45, 72 h): 100 to 1000 nM

Cc1nn(C2CCC(=O)NC2=O)c(=O)c2ccc(N3CCN(CC4CN(C(=O)CN5CCC(COc6cnc(-c7cccc(Cn8nc(-c9cccc(C#N)c9)ccc8=O)c7)nc6)CC5)C4)CC3)cc12 (stereo not drawn) [ICT-0001235]
DC50 ([3]; Table 2): < 100 nM | IC50 ([4]; Homo sapiens, MKN-45, 72 h): < 100 nM
